# Tests used:
# Test in all cases: Postemergence herbicidal activity, field trial in rice, Espinal, Colombia
# Conditions in all cases: 29 DAA, postemergence foliar
# [1] = tested on: Corchorus spp (jute, CRGSS); assay type: in vivo, Corchorus sp
# Procedure: (§1) These trials were conducted under field conditions in Espinal, Colombia. Trial sites were located in commercially grown fields of common rice (Oryza sativa). The rice crop was grown using normal cultural practices for fertilization, seeding, and maintenance to ensure good growth of the crop and the weeds. The trials were conducted using normal research methodology. Trial plots were 2 meters (m) wide by 5 m long. All treatments were applied using a randomized complete block trial design with 4 replications per treatment. The trial sites had naturally occurring populations of weeds. The weed spectrum included, but was not limited to, Cyperus iria L. (rice flatsedge, CYPIR), Phyllanthus niruri L. (gripeweed, PYLNI) and Corchorus spp (jute, CRGSS). The plots were treated with a postemergence foliar application 19 days after emergence of the rice.
# (§2) Treatments consisted of tank mixes of aminopyralid triisopropanolammonium salt (MILESTONE 240SL) and commercially available formulations of bentazon herbicide (BASAGRAN 480SL). The application volume was 200 liters per hectare (L/ha) of water. All application were made using precision gas hand sprayers with a 2 m boom using flat fan (8002) nozzles to broadcast the treatments over the top of the rice and weeds.
# (§3) The treated plots and control plots were rated blind at various intervals after application. Ratings were based on Percent (%) Visual weed control, where 0 corresponds to no injury and 100 corresponds to complete kill.
# (§4) Colby's equation was used to determine the herbicidal effects expected from the mixtures (Colby, S. R. Calculation of the synergistic and antagonistic response of herbicide combinations. Weeds 1967 15, 20-22).
# (§5) The following equation was used to calculate the expected activity of mixtures containing two active ingredients, A and B: Expected=A+B−(A×B/100)
# (§6) A=observed efficacy of active ingredient A at the same concentration as used in the mixture;
# (§7) B=observed efficacy of active ingredient B at the same concentration as used in the mixture.
# [2] = tested on: Phyllanthus niruri L. (gripeweed, PYLNI); assay type: in vivo
# Procedure: as §1, §2, §3, §4, §5, §6, §7
# [3] = tested on: Cyperus iria L. (rice flatsedge, CYPIR); assay type: in vivo
# Procedure: as §1, §2, §3, §4, §5, §6, §7
Structure (SMILES),Visual Weed Control (%) CRGSS Obs ([1]; aminopyralid 4 g ae/ha alone) [%],Visual Weed Control (%) CRGSS Obs ([1]; aminopyralid 8 g ae/ha alone) [%],Visual Weed Control (%) PYLNI Obs ([2]; aminopyralid 4 g ae/ha alone) [%],Visual Weed Control (%) PYLNI Obs ([2]; aminopyralid 8 g ae/ha alone) [%],Visual Weed Control (%) PYLNI Obs ([2]; aminopyralid 16 g ae/ha alone) [%],Visual Weed Control (%) CYPIR Obs ([3]; aminopyralid 4 g ae/ha alone) [%],Visual Weed Control (%) CYPIR Obs ([3]; aminopyralid 8 g ae/ha alone) [%],Visual Weed Control (%) CYPIR Obs ([3]; aminopyralid 16 g ae/ha alone) [%],Visual Weed Control (%) CRGSS Obs ([1]; bentazon 180 g ai/ha alone) [%],Visual Weed Control (%) PYLNI Obs ([2]; bentazon 180 g ai/ha alone) [%],Visual Weed Control (%) CYPIR Obs ([3]; bentazon 180 g ai/ha alone) [%]
"Nc1cc(Cl)nc(C(=O)O)c1Cl [Aminopyralid, 4-amino-3,6-dichloro-2-pyridinecarboxylic acid]",48,70,0,0,0,0,0,41,–,–,–
"CC(C)N1C(=O)c2ccccc2NS1(=O)=O [Bentazon, 3-(1-methylethyl)-1H-2,1,3-benzothiadiazin-4(3H)-one 2,2-dioxide]",–,–,–,–,–,–,–,–,80,19,74
